Measured values: patent US20240307393A1, “PHARMACEUTICAL COMPOSITION FOR CANCER PREVENTION OR TREATMENT, COMPRISING CDK4/6 INHIBITOR AND TRICYCLIC ANTIDEPRESSANT” (priority 2021, published 2024)

Experiments:
[1] = tested on: lung cancer cell line H460; assay: WST-1 cancer cell killing (cell survival) test in lung cancer cell line H460; type: cell-based; settings: 48 hours; for Cell survival rate (%) Combined treatment with abemaciclib: antidepressant at Table 1 concentration combined with 4 μM abemaciclib; for Cell survival rate (%) Combined treatment with palbociclib: antidepressant at Table 1 concentration combined with 15 μM palbociclib; for Cell survival rate (%) Combined treatment with ribociclib: antidepressant at Table 1 concentration combined with 50 μM ribociclib; for Cell survival rate (%) Treatment with antidepressants alone: imipramine 100, clomipramine 40, desipramine 50, amitriptyline 45, imipramine blue 0.5 μM (Table 1)
Description: (§2) This experiment was conducted on the lung cancer cell line H460, the colorectal cancer cell line HCT116, and the breast cancer cell line MCF7. […] The cell lines H460 and MCF7 were cultured using RPMI1640 medium containing 10% FBS and 1% penicillin-streptomycin, and the cell line HCT116 was cultured using McCoy's 5A medium containing 10% FBS and 1% penicillin-streptomycin.
(§3) The cell lines H460, HCT116 and MCF7 were cultured at 3×10^3 cells/well in a 96 well plate. The next day, each drug was prepared at the concentrations shown in Tables 1 and 2, mixed with the medium, and then added to each well and left for 48 hours. After 48 hours, 10 ul/well of WST-1 reagent was added thereto and reacted for 1 hour. Samples reacted with WST-1 were analyzed by ELISA at 450 nM, and the same conditions were repeated three times to calculate the average value and standard error.

[2] = tested on: colorectal cancer cell line HCT116; assay: WST-1 cancer cell killing (cell survival) test in colorectal cancer cell line HCT116; type: cell-based, human; settings: 48 hours; for Cell survival rate (%) Combined treatment with abemaciclib: antidepressant at Table 1 concentration combined with 0.2 μM abemaciclib; for Cell survival rate (%) Combined treatment with palbociclib: antidepressant at Table 1 concentration combined with 5 μM palbociclib; for Cell survival rate (%) Combined treatment with ribociclib: antidepressant at Table 1 concentration combined with 20 μM ribociclib; for Cell survival rate (%) Treatment with antidepressants alone: imipramine 100, clomipramine 40, desipramine 20, amitriptyline 25, imipramine blue 0.4 μM (Table 1)
Description: as §2, §3

[3] = tested on: breast cancer cell line MCF7; assay: WST-1 cancer cell killing (cell survival) test in breast cancer cell line MCF7; type: cell-based; settings: 48 hours; for Cell survival rate (%) Combined treatment with abemaciclib: antidepressant at Table 1 concentration combined with 10 μM abemaciclib; for Cell survival rate (%) Combined treatment with palbociclib: antidepressant at Table 1 concentration combined with 20 μM palbociclib; for Cell survival rate (%) Combined treatment with ribociclib: antidepressant at Table 1 concentration combined with 30 μM ribociclib; for Cell survival rate (%) Treatment with antidepressants alone: imipramine 50, clomipramine 20, desipramine 50, amitriptyline 50, imipramine blue 0.1 μM (Table 1)
Description: This experiment was conducted on the lung cancer cell line H460, the colorectal cancer cell line HCT116, and the breast cancer cell line MCF7. As for the genetic characteristics of each cell line, the lung cancer cell line H460 has a KRAS mutation [p.Q61H], the colorectal cancer cell line HCT116 has a KRAS mutation [p.G13D], and the breast cancer cell line MCF7 has the characteristic of being positive for estrogen receptor and progesterone receptor but negative for HER2. The cell lines H460 and MCF7 were cultured using RPMI1640 medium containing 10% FBS and 1% penicillin-streptomycin, and the cell line HCT116 was cultured using McCoy's 5A medium containing 10% FBS and 1% penicillin-streptomycin.
Specifically, abemaciclib, ribociclib and palbociclib were used as CDK4/6 inhibitors, and DMSO was used as a solvent to prepare the drug stock. […] Each drug was used after diluting to the concentrations shown in Table 1 (antidepressant concentration used (μM)) and Table 2 (CDK4/6 inhibitor concentration used (μM)) below.
The cell lines H460, HCT116 and MCF7 were cultured at 3×10^3 cells/well in a 96 well plate. The next day, each drug was prepared at the concentrations shown in Tables 1 and 2, mixed with the medium, and then added to each well and left for 48 hours. After 48 hours, 10 ul/well of WST-1 reagent was added thereto and reacted for 1 hour. Samples reacted with WST-1 were analyzed by ELISA at […], and the same conditions were repeated three times to calculate the average value and standard error.

[4] = tested on: colorectal cancer cell line HCT116 subcutaneous tumor; assay: Tumor growth inhibition in HCT116 subcutaneous tumor model; type: in vivo, nude mice (Balb/c nude); set-up: reference not given here; settings: HCT116 subcutaneous tumor in nude mice, desipramine 20 mg/kg intraperitoneally, abemaciclib 30 mg/kg orally, once a day
Description: To evaluate the anti-tumor effect, the tumor size was measured every day until day 14 after treatment, and the differences between each group were analyzed. The tumor size was calculated as follows: V (mm^3)=1/2×long axis (mm)×short axis (mm)×height (mm). By day 14, the tumor size was measured, a tumor growth graph was created, and the tumor size between each group was compared and analyzed.

[5] = Toxicity evaluation: hematoxylin and eosin histology of major normal organs; type: in vivo, nude mice (Balb/c nude); settings: day 14; hematoxylin and eosin staining; desipramine 20 mg/kg intraperitoneally, abemaciclib 30 mg/kg orally, once a day
Description: (§1) Specifically, the human colorectal cancer cell line HCT116 was purchased from the American Type Culture Collection (ATCC, USA) and cultured in McCoy's 5A medium containing 10% fetal bovine serum (FBS) and penicillin-streptomycin under conditions of 37° C., 5% carbon dioxide and standard humidity.

[6] = Toxicity evaluation: body weight for 14 days; type: in vivo, nude mice (Balb/c nude); settings: measured for 14 days; desipramine 20 mg/kg intraperitoneally, abemaciclib 30 mg/kg orally, once a day
Description: as §1

SMILES	Cell survival rate (%) Combined treatment with abemaciclib [1] [%]	Cell survival rate (%) Combined treatment with palbociclib [1] [%]	Cell survival rate (%) Combined treatment with ribociclib [1] [%]	Cell survival rate (%) Treatment with antidepressants alone [1] [%]	Cell survival rate (%) Combined treatment with abemaciclib [2] [%]	Cell survival rate (%) Combined treatment with palbociclib [2] [%]	Cell survival rate (%) Combined treatment with ribociclib [2] [%]	Cell survival rate (%) Treatment with antidepressants alone [2] [%]	Cell survival rate (%) Combined treatment with abemaciclib [3] [%]	Cell survival rate (%) Combined treatment with palbociclib [3] [%]	Cell survival rate (%) Combined treatment with ribociclib [3] [%]	Cell survival rate (%) Treatment with antidepressants alone [3] [%]	also measured
CN(C)CCC=C1c2ccccc2CCc2ccccc21 [Amitriptyline]	50	58	32	65	64	54	46	86	21	45	28	63	
CN(C)CCCN1c2ccccc2CCc2ccc(Cl)cc21 [Clomipramine]	20	33	34	65	32	34	23	65	37	43	56	81	
CNCCCN1c2ccccc2CCc2ccccc21 [Desipramine]	24	14	16	40	28	44	29	71				60	tumor size on day 14 [4]: 75.2%; histological changes of major organs (heart, lung, liver, spleen, kidney) compared to the control group [5]: no histological changes; body weight difference between groups [6]: no significant difference in body weight
CCN(CC)c1ccc(C(c2ccc(N(CC)CC)cc2)=c2ccc3c(c2)CCc2ccccc2[N+]=3CCCN(C)C)cc1 [Imipramine blue]	50	36	36	62	39	43	31	53	43	59	60	88	
CN(C)CCCN1c2ccccc2CCc2ccccc21 [Imipramine]	20	53	47		58	41	39		34	53	55		
CCN1CCN(Cc2ccc(Nc3ncc(F)c(-c4cc(F)c5nc(C)n(C(C)C)c5c4)n3)nc2)CC1 [abemaciclib]													lung cancer cell survival rate, abemaciclib alone ([1]; 4 μM abemaciclib alone, WST-1): 71%; colorectal cancer cell survival rate, abemaciclib alone ([2]; 0.2 μM abemaciclib alone, WST-1): 87%; breast cancer cell survival rate, abemaciclib alone ([3]; 10 μM abemaciclib alone, WST-1): 59%; tumor size on day 14 [4]: 54.6%; histological changes of major organs (heart, lung, liver, spleen, kidney) compared to the control group [5]: no histological changes; body weight difference between groups [6]: no significant difference in body weight
CC(=O)c1c(C)c2cnc(Nc3ccc(N4CCNCC4)cn3)nc2n(C2CCCC2)c1=O [palbociclib]													lung cancer cell survival rate, palbociclib alone ([1]; 15 μM palbociclib alone, WST-1): 67%; colorectal cancer cell survival rate, palbociclib alone (HCT116 section) ([2]; 5 μM palbociclib alone, WST-1): 79%; breast cancer cell survival rate, palbociclib alone ([3]; 20 μM palbociclib alone, WST-1): 75%
CN(C)C(=O)c1cc2cnc(Nc3ccc(N4CCNCC4)cn3)nc2n1C1CCCC1 [ribociclib]													lung cancer cell survival rate, ribociclib alone ([1]; 50 μM ribociclib alone, WST-1): 72%; colorectal cancer cell survival rate, ribociclib alone ([2]; 20 μM ribociclib alone, WST-1): 73%; breast cancer cell survival rate, ribociclib alone ([3]; 30 μM ribociclib alone, WST-1): 80%
